Molecules are shown by their SMILES. Like-named read-outs stand apart in the source and are kept apart here.

These results are taken from patent publication US9968694B2, “Compositions and methods for non-invasive imaging” (MERRIMACK PHARMACEUTICALS, INC., priority 2012, dated 2018).

The conditions of series [1]: over several weeks, cited from earlier work.
Series [2] is described as follows: Cu complex formation in HS buffer (appearance, precipitation). The series is classed as physicochemical. Particulars: 0.1 mM chelator and Cu in HS buffer pH 6.5. The method, then: Cu:4-DEAP-ATSC and Cu:ATSM complexes were formed as follows. In 1 mL HS were added 5 μL of 20 mM CuSO4 and 5 μl of 20 mM 4-DEAP-ATSC (in DMSO) or 5 μL of 20 mM ATSM (in DMSO). […] The chelator and Cu concentration was 0.1 mM.

Series [3] can be described thus: ^64Cu chelation efficiency of 4-DEAP-ATSC by instant thin layer chromatography (ITLC). In kind it is physicochemical. The source says: […] An instant thin layer chromatography (ITLC) assay was used for quantifying the fractions of uncomplexed ^64Cu and ^64Cu(II)-4-DEAP-ATSC complex in the chelation mixture. The uncomplexed ^64Cu can be detected at the solvent front, while the ^64Cu(II)-4-DEAP-ATSC complex remained at the origin where the sample is spotted.

Series [4] in a line: Storage stability of 4-DEAP-ATSC formulations (degradation). In kind it is physicochemical. On the procedure: Various 4-DEAP-ATSC formulations (see Table 10 below) were stored under different conditions. At designated time points, samples were collected where their storage stability were evaluated by functional readouts.
4-DEAP-ATSC was formulated in citrate buffer in a range of pH (pH 4-7). […] At a pH of between 6 and 7, the rates of degradation were very similar, with less than 15% degradation observed over a 4-month period when stored at −20° C. or 4° C.
4-DEAP-ATSC formulated in citrate buffer was stored at 4 different temperatures (−20° C., 4° C., 30° C., and 37° C.). […] (>60%) over a 1-month period. On the other hand, 4-DEAP-ATSC formulations stored at −20° C. and 4° C. can be stably preserved with less than 15% of degradation detected over a period of 4 months.
Various 4-DEAP-ATSC formulations were lyophilized and stored under different conditions to study the effect of lyophilization on their storage stability. […] In addition, mannitol was added to the formulation to serve as a bulking agent for lyophilization.
A set of 4-DEAP-ATSC formulations was filled with argon as an alternative means to improve storage stability of the liquid formulations. […] Significant degradation was still detected in formulations stored at elevated temperatures (30° C. and 37° C.). Additionally, storage stability of inert gas-filled lyophilized formulations was similar to air-filled lyophilized formulations (FIG. 19F).

Series [5] is described as follows: Efficiency of ^64Cu:4-DEAP-ATSC loading into liposomes, size exclusion chromatography. The series is classed as physicochemical. On the procedure:
The efficiency of liposome loading for Step 2 (see FIG. 3) was determined. […] Encapsulated (liposomal) radioactivity was separated from total radioactivity using size exclusion chromatography. From this it was determined that >90% of the ^64Cu was loaded into the liposome at 4-DEAP-ATSC:lipid ratios <2 mol % as shown in Table 2.
A general note: SEC sorts molecules by how far they enter the pores of the column.

For `[Cu]` [copper], the Toxic dose levels is approximately 154 µg/kg in series [1] (65 kg adult) and more than 10 mg/person/day in series [1].
For the compound `CNC(=S)NN=C(C)C(C)=NNC(=S)NC` [ATSM, diacetyl 4-methylthiosemicarbazone, reference compound], the “appearance of Cu complex sample” value in series [2] was “became turbid and developed a brown precipitate”.
For the compound `CCN(CC)CCCNC(=S)NN=C(C)C(C)=NNC(=S)NCCCN(CC)CC` [Sample 4-DEAP-ATSC, diacetyl 4,4′bis (3-(N,N-diethylamino)propyl)thiosemicarbazone], the “Chelation Efficiency” value is on record as 11-46% in series [3] (Specific Radioactivity 0.01 mCi/nmol); 98% in series [3] (Specific Radioactivity 0.04 mCi/nmol); 68-97% in series [3] (Specific Radioactivity 0.07 mCi/nmol); 99% in series [3] (Specific Radioactivity 0.08 mCi/nmol); 99% in series [3] (Specific Radioactivity 0.09 mCi/nmol); 99-100% in series [3] (Specific Radioactivity 0.1 mCi/nmol). The “Chelation Efficiency” value in series [3] (Specific Radioactivity 0.15 mCi/nmol) is reported as 98-99%; in series [3] (Specific Radioactivity 0.17 mCi/nmol) it was 96%; in series [3] (Specific Radioactivity 0.18 mCi/nmol), 94%; in series [3] (Specific Radioactivity 0.2 mCi/nmol), 96-99%; in series [3] (Specific Radioactivity 0.3 mCi/nmol), 98%; in series [3] (Specific Radioactivity 0.65 mCi/nmol), 99%. In addition, the “Chelation Efficiency” value in series [3] (Specific Radioactivity 13.1 mCi/nmol) turned out to be 99%. For the same compound, the efficiency of chelation in series [3] (specific radioactivities ranging from 0.07-0.3 mCi/nmol) is reported as 94-99%. Further, the “appearance of Cu complex sample” value in series [2] is listed as “remained clear, without any signs of precipitation”. Further, the degradation result in series [4] (citrate buffer pH between 6 and 7, 4-month period, stored at −20° C. or 4° C.) is recorded as “less than 15%”; in series [4] (citrate buffer, stored at 30° C. and 37° C., 1-month period), more than 60%; in series [4] (citrate buffer, stored at −20° C. and 4° C., period of 4 months), “less than 15%”. Also, in series [4] (liquid formulations filled with argon), the “effect of inert gas atmosphere on storage stability” value is “did not improve storage stability”. Besides, the “effect of lyophilization on storage stability” value in series [4] (lyophilized formulations) is on record as “effective method to inhibit degradation”. In addition, the “effect of mannitol on storage stability” value in series [4] (mannitol as bulking agent for lyophilization) is reported as “no effect on the storage stability”. Further, the “^64Cu Loading Efficiency” value in series [5] (4-DEAP-ATSC:Lipid Ratio 0.01% (mol %)) is 96-98%; in series [5] (4-DEAP-ATSC:Lipid Ratio 0.04% (mol %)) it was 96-98%; in series [5] (4-DEAP-ATSC:Lipid Ratio 0.10% (mol %)) it was 95-97%; in series [5] (4-DEAP-ATSC:Lipid Ratio 0.15% (mol %)) it was 92-97%; in series [5] (4-DEAP-ATSC:Lipid Ratio 0.25% (mol %)) it was 92-97%; in series [5] (4-DEAP-ATSC:Lipid Ratio 0.40% (mol %)) it was 94-98%. Moreover, the “^64Cu Loading Efficiency” value in series [5] (4-DEAP-ATSC:Lipid Ratio 0.50% (mol %)) is listed as 92-96%; in series [5] (4-DEAP-ATSC:Lipid Ratio 0.67% (mol %)), 96%; in series [5] (4-DEAP-ATSC:Lipid Ratio 0.75% (mol %)), 92%; in series [5] (4-DEAP-ATSC:Lipid Ratio 1% (mol %)), 93-98%; in series [5] (4-DEAP-ATSC:Lipid Ratio 2% (mol %)), 91-97%; in series [5] (4-DEAP-ATSC:Lipid Ratio 4.20% (mol %)) it was 86%. The “^64Cu Loading Efficiency” value in series [5] (4-DEAP-ATSC:Lipid Ratio 5.00% (mol %)) is on record as 92-93%; in series [5] (4-DEAP-ATSC:Lipid Ratio 10% (mol %)), 82-92%; in series [5] (4-DEAP-ATSC:Lipid Ratio 25% (mol %)), 90%; in series [5] (4-DEAP-ATSC:Lipid Ratio 50% (mol %)), 71%. In addition, the “^64Cu loaded into the liposome” value in series [5] (4-DEAP-ATSC:lipid ratios <2 mol %) was more than 90%.
